Measured values taken from PMC11472328, “Targeting Plasmodium falciparum IspD in the Methyl-D-erythritol Phosphate Pathway: Urea-Based Compounds with Nanomolar Potency on Target and Low-Micromolar Whole-Cell Activity” (Journal of Medicinal Chemistry, 2024).
Values after ≈ are worked out from the molar mass of the structure shown. Read-outs that look alike come from different tables or passages of the source.

How the values were obtained:
E. coli K12 = assay: Growth inhibition of E. coli K12; assay type: cell-based; settings: Escherichia coli
EcIspE = EcIspE (Escherichia coli, UniProt P62615); assay: Activity against auxiliary enzyme EcIspE; assay type: biochemical
EcIspE, sequence (P62615 whole entry): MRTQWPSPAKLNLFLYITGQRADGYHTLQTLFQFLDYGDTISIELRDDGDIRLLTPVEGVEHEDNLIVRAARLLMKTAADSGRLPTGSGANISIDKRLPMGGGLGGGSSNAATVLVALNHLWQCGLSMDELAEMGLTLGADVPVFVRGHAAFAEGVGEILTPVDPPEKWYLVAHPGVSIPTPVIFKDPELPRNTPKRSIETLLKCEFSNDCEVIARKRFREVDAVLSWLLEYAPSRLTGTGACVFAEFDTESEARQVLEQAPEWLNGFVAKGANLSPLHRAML

PK-LDH = assay: Activity against auxiliary enzymes PK-LDH; assay type: biochemical
malaria = test system: malaria; design: method as in Fernandes et al. [6]−[8]; settings: children, combination therapy, meta-analysis ref Fernandes et al. [6]−[8]; cited from earlier work
PfIspD [1] = biological target: T1, PfIspD (Plasmodium falciparum, UniProt Q8I273); assay: Photometric in vitro PfIspD assay; assay type: biochemical; settings: mean ± SD, n ≥ 2; n.a. = absence of activity
T1 sequence (Q8I273 1-734): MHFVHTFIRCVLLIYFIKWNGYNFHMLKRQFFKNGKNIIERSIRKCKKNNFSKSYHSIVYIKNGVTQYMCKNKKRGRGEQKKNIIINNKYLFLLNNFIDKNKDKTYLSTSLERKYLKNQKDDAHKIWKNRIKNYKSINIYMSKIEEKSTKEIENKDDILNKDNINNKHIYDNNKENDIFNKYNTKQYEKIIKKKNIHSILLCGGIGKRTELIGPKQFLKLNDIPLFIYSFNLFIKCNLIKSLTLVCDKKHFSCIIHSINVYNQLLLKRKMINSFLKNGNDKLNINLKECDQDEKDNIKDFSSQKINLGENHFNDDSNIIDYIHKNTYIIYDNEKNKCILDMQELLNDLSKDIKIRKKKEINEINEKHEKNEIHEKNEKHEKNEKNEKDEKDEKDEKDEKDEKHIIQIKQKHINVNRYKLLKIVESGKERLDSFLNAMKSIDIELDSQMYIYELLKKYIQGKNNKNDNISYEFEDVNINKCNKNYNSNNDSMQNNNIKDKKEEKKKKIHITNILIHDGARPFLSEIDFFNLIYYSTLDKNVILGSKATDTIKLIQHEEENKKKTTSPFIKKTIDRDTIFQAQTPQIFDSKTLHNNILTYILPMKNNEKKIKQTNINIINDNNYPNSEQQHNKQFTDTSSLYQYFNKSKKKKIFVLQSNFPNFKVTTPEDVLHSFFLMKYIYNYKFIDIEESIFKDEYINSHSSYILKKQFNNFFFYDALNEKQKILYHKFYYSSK
Method: Dilution series (1:2) of inhibitors in DMSO covered the concentration range of approximately 200–0.01 μM. After finishing the dilution series, the final volume of compound solution in DMSO per well was 3 μL. For the IspD assay, 30 μL aliquots of a solution containing 100 mM Tris-HCl, pH 7.6, 0.02% NaN3, 1 mM MEP and 1 mM CTP were added to microplate wells preloaded with 3 μL of DMSO containing test compounds. […] Initial rates were estimated using Softmax Pro 6.1 software (Molecular Devices, Biberach an der Riss, Germany). IC50 values were determined with a nonlinear regression method using the program Dynafit.[21]

PfNF54 = assay: Whole-cell assay, [3H]-hypoxanthine incorporation; assay type: cell-based, Plasmodium falciparum; settings: mean ± SD, n.a. = absence of activity
Method: After incubation for 48 h, 0.25 μCi of [^3H]-hypoxanthine was added per well and plates were incubated for an additional 24 h.

PfIspD [2] = biological target: T1, PfIspD; assay: Determination of enzyme kinetics, LC-MS based IspD assay; assay type: biochemical; settings: our results, n = 2, mean ± SD; read-out: Km^CTP
Method: (§1) A volume of 80 μL Buffer A containing 100 mM Tris-HCl pH 7.6, 1 mM DTT, 1 mM MgCl2, 50 nM PfIspD were added to well A1 96-well plate while 50 μL were added to the rest of the wells. A volume of 20 μL of 10 mM CTP was added to the first well, then a serial dilution was conducted by moving 50 μL. To start the reaction, we then added on buffer A 50 μL of Buffer B containing 100 mM Tris-HCl pH 7.6, 1 mM DTT, and 1 mM MEP. The assay plate was incubated at 37 °C for 40 min, after which, the protein was denaturated by heating up the plate to 95 °C for 5 min. The plate was then centrifuged at 4000 rpm at 4 °C for 5 min to precipitate the protein. […] Thereafter, 10 μL of each of the supernatants from the assay plate were added to the plate containing the mixture with our internal standard. The plate was centrifuged again at 4000 rpm at 4 °C for 5 min, after which, 50 μL of the supernatant was transferred to an LC-MS plate and closed with a silicon cover. LC-MS conditions and data analysis methods we used were described above. The peak area for each conditions were used to calculate the Michaelis–Menten kinetic parameters using Graphpad Prism v 9. Measurements were performed in duplicates, repeated at least two times from two to three independent experiments.

IspD = settings: cited from earlier work
[3] = test system: Mtb H37Rv mCherry 10 strain; assay: MIC 90 against Mtb H37Rv mCherry 10 strain; assay type: cell-based; settings: Mycobacterium tuberculosis, read-out: MIC 90 (growth inhibition) of Mtb H37Rv mCherry 10 strain
[4] = test system: Pf3D7 (WT) and MMV008138 resistant parasites (R2 and R3); assay: IDP rescue assay; assay type: cell-based, Plasmodium falciparum; settings: 200 μM IDP, 72 h
Method: The parasite growth was quantified by measuring DNA content using PicoGreen assay (Invitrogen). IC50 values were calculated by nonlinear regression analysis using GraphPad Prism software and reflect the mean ± standard error of the mean (SEM) from at least three independent experiments. Statistical comparison of the values was done via one-way ANOVA.

[5] = substrate: C[C@](O)(CO)[C@H](O)COP(=O)(O)O; assay: Determination of enzyme kinetics, LC-MS based IspD assay; assay type: biochemical, Plasmodium falciparum; settings: other: our results, n = 2, mean ± SD; pH 7.6
Method: as §1

O=C(Nc1ccc([N+](=O)[O-])cc1)Nc1cccc(S(=O)(=O)N2CCCC2)c1 [Compound 8, 1-(4-Nitrophenyl)-3-(3-(pyrrolidin-1-ylsulfonyl)phenyl)urea]
inhibition at 100 µM (E. coli K12): 14 ± 5%

O=C(Nc1ccc([N+](=O)[O-])cc1)Nc1cccc(S(=O)(=O)N2CCCCC2)c1 [Compound 26, 1-(4-Nitrophenyl)-3-(3-(piperidin-1-ylsulfonyl)phenyl)urea]
IC50 (EcIspE): 49 ± 7 µM
IC50 (PK-LDH): > 500 µM

O=CN(O)CCCP(=O)(O)O [fosmidomycin]
cure rate (malaria): 85%

O=C(Nc1ccc(Cl)cc1)Nc1cccc(S(=O)(=O)N2CCCC2)c1 [Compound 5, 1-(4-Chlorophenyl)-3-(3-(pyrrolidin-1-ylsulfonyl)phenyl)urea]
inhibition at 100 µM (E. coli K12): 45 ± 6%

1-(4-Methyl-3-(morpholinosulfonyl)phenyl)-3-(4-nitrophenyl)urea [Compound 33]
IC50 (PfIspD [1]): > 10000 nM

Nc1ccc(NC(=O)Nc2cccc(S(=O)(=O)N3CCCC3)c2)cc1 [Compound 4, 1-(4-Aminophenyl)-3-(3-(pyrrolidin-1-ylsulfonyl)phenyl)urea]
PfNF54 (IC50 μM) (PfNF54): lacking whole-cell activity

Nc1ccn([C@@H]2O[C@H](COP(=O)(O)OP(=O)(O)OP(=O)(O)O)[C@@H](O)[C@H]2O)c(=O)n1 [CTP, cytidine triphosphate]
Km (PfIspD [2]): 58 ± 9 µM
Km (IspD; ref Ghavami et al.[18], read-out: Km^CTP): 9 ± 3 µM
Km (IspD; ref Imlay et al.[12], read-out: Km^CTP): 59 ± 4 µM

N#Cc1ccc(NC(=O)Nc2cccc(S(=O)(=O)N3CCCC3)c2)cc1 [Compound 10, 1-(4-Cyanophenyl)-3-(3-(pyrrolidin-1-ylsulfonyl)phenyl)urea]
inhibition at 100 µM (E. coli K12): 46 ± 4%
MIC90 [3]: 64 µM (≈ 23.7 µg/mL)
effect of IDP supplementation on sensitivity [4]: equalized the sensitivity of the resistant strains and the wild type

O=C(Nc1ccc([N+](=O)[O-])cc1)Nc1ccc(F)c(S(=O)(=O)N2CCOCC2)c1 [Compound 31, 1-(4-Fluoro-3-(morpholinosulfonyl)phenyl)-3-(4-nitrophenyl)urea]
IC50 (EcIspE): 75 ± 11 µM
IC50 (PK-LDH): > 500 µM

CS(=O)(=O)c1ccc(NC(=O)Nc2cccc(S(=O)(=O)N3CCCC3)c2)cc1 [Compound 9, 1-(4-(Methylsulfonyl)phenyl)-3-(3-(pyrrolidin-1-ylsulfonyl)phenyl)urea]
IC50 (EcIspE): > 500 µM
IC50 (PK-LDH): > 500 µM

O=C(Nc1ccc([N+](=O)[O-])cc1)Nc1cccc(S(=O)(=O)N2CCOCC2)c1 [Compound 27, 1-(3-(Morpholinosulfonyl)phenyl)-3-(4-nitrophenyl)urea]
IC50 (EcIspE): > 500 µM
IC50 (PK-LDH): 104 ± 19 µM

C[C@](O)(CO)[C@H](O)COP(=O)(O)O [MEP, 2-C-methylerythritol-D-erythritol-4-phosphate]
Km (IspD; ref Ghavami et al.[18], read-out: Km^MEP): 12 ± 3 µM
Km (IspD; ref Wu et al.[14], read-out: Km^MEP): 61 µM

COC(=O)c1ccc(NC(=O)Nc2cccc(S(=O)(=O)N3CCCC3)c2)cc1 [Compound 7, Methyl 4-(3-(3-(Pyrrolidin-1-ylsulfonyl)phenyl)ureido)benzoate]
IC50 (EcIspE): > 500 µM
IC50 (PK-LDH): 242 ± 72 µM

O=C(Nc1ccc(C(F)(F)F)cc1)Nc1cccc(S(=O)(=O)N2CCCC2)c1 [Compound 11, 1-(3-(Pyrrolidin-1-ylsulfonyl)phenyl)-3-(4-(trifluoromethyl)phenyl)urea]
IC50 (EcIspE; auxiliary enzyme, read-out: EcIspE (IC50 µM)): 73 ± 15 µM
IC50 (PK-LDH): 73 ± 15 µM

B1: PfIspD (Plasmodium falciparum 3D7) (protein)
chain: T1 sequence (Q8I273 1-734)
Km [5]: 46 ± 3 µM
